Experimental findings from patent publication US20180092866A1, “SUBSTITUTED N-([1,1'-BIPHENYL]-3-YL)-[1,1'-BIPHENYL]-3-CARBOXAMIDE ANALOGS AS INHIBITORS FOR BETA-CATENIN/B-CELL LYMPHOMA 9 INTERACTIONS” (University of Utah Research Foundation, priority 2015, published 2018) are described below.

Counter-ions that a name gives are not always drawn.

For the first assay, the target named is T1, β-catenin/BCL9 protein-protein interactions (Homo sapiens, UniProt P35222).
T1 construct: C-terminally His6-tagged wild-type or mutant β-catenin (residues 138-686) proteins; made in house; host or cells: E. coli BL21 DE3
T1 sequence (P35222 138-686): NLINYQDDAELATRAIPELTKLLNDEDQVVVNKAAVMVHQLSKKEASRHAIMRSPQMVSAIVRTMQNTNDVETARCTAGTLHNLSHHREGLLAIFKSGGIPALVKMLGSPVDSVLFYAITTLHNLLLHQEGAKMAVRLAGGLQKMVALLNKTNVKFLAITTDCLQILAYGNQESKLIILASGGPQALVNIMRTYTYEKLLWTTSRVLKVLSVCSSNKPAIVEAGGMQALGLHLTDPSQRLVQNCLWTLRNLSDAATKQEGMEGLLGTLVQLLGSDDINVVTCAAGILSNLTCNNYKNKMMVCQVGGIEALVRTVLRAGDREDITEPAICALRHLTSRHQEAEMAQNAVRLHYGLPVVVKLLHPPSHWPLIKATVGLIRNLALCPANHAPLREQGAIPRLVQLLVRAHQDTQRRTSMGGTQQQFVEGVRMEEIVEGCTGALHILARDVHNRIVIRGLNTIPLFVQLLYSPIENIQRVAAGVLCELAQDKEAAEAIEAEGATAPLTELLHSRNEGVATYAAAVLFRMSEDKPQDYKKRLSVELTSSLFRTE
Kind of assay: AlphaScreen competitive inhibition assay, wild-type β-catenin/BCL9. Format: binding. Particulars: AlphaScreen assay, comparison with named compound. The procedure: The purity of the wild-type and mutant β-catenin proteins was all greater than 95% as determined by the SDS-PAGE gel analysis. Both the wild-type and mutant β-catenin proteins are stable under the testing conditions. Native non-denaturing gel electrophoresis was performed to confirm the homogeneity of the purified proteins. Experiments were performed in white opaque 384-well plates from PerkinElmer, and the samples were read on a Synergy 2 plate reader (Biotek) with a sensitivity setting of 200 using AlphaScreen protocol with excitation at 680 nm and emission at 570 nm. All dilutions were made in 1×assay buffer containing 25 mM HEPES (pH=7.0), 100 mM NaCl, 0.01% Triton X-100, and 0.1% BSA. In the AlphaScreen competitive inhibition assay, 40 nM of C-terminally His6-tagged wild-type or mutant β-catenin (residues 138-686) proteins was incubated with 5 nM of N-terminal biotinylated human BCL9 26-mer (residues 350-375) for 30 min at 4° C., and then different concentrations of the tested inhibitors in the assay buffer were added to make a final volume of 20 μL. The mixture was incubated at 4° C. for 2 h. The donor and acceptor beads were added to a final concentration of 10 μg/mL in 25 μL of assay buffer. The mixture was incubated at 4° C. for 1 h. The IC50 value was determined by nonlinear least-square analysis of GraphPad Prism 5.0. […] The Ki values were derived from the IC50 values by a reported method (Nikolovska-Coleska et al. (2004) Anal. Biochem. […]: 261-273). Experiments were performed in triplicate and carried out in the presence of 1% DMSO.
On the technique in general: Alpha assays give light when donor and acceptor beads are brought close together.
For `Cl.NCCOc1ccc(C(=O)Nc2cccc(-c3ccc(F)cc3)c2)cc1-c1ccc(F)cc1` [Compound 9, 2-((4′-Fluoro-5-((4′-fluoro-[1,1′-biphenyl]-3-yl)carbamoyl)-[1,1′-biphenyl]-2-yl)oxy) ethanaminium chloride], the “relative inhibitory potency for β-catenin/BCL9 PPIs (in words)” value is listed as “higher potency than 14”.

The assay is the same for the next values; noted with them: AlphaScreen assay, relative to compound 17.
Regarding `O=C(Nc1ccc(OCCO)c(-c2ccc(F)cc2)c1)c1ccc(OCCO)c(-c2ccc(F)c(F)c2)c1` [Compound 18, 3′,4′-Difluoro-N-(4′-fluoro-6-(2-hydroxyethoxy)-[1,1′-biphenyl]-3-yl)-6-(2-hydroxyethoxy)-[1,1′-biphenyl]-3-carboxamide], the “fold less potent than 17” value worked out at 6 fold.

The same assay, now with this note: wild-type β-catenin (residues 138-686)/biotinylated BCL9 26-mer; Ki derived from IC50; mean ± SD.
Regarding `NCCOc1ccc(C(=O)Nc2cccc(-c3ccc(F)cc3)c2)cc1-c1ccsc1` [Compound 15, 2-(4-((4′-Fluoro-[1,1′-biphenyl]-3-yl)carbamoyl)-2-(thiophen-3-yl)phenoxy) ethanaminium chloride], the Ki (usually the dissociation constant of the complex between target and ligand, obtained from inhibition or displacement) was determined as 32.4 ± 4.24 µM.

As to `Cc1ccc(-c2cc(NC(=O)c3ccc(O[C@H]4CCNC4)c(-c4ccc(F)c(F)c4)c3)ccc2O[C@H]2CCNC2)cc1` [Compound 91c, 3′,4′-Difluoro-N-(4′-methyl-6-((S)-pyrrolidin-3-yloxy)-[1,1′-biphenyl]-3-yl)-6-((S)-pyrrolidin-3-yloxy)-[1,1′-biphenyl]-3-carboxamide dihydrochloride], the Ki was determined as 41.4 ± 9.16 µM.

For the compound `O=C(Nc1ccc(O[C@H]2CCNC2)c(-c2ccc(F)cc2)c1)c1ccc(O[C@H]2CCNC2)c(-c2ccc3ccccc3c2)c1` [Compound 25, (S)-3-((4′-fluoro-5-(3-(naphthalen-2-yl)-4-((S)-pyrrolidin-1-ium-3-yloxy)benzamido)-[1,1′-biphenyl]-2-yl)oxy) pyrrolidin-1-ium chloride], the Ki amounted to 8.45 ± 2.65 µM.

Take `O=C(Nc1ccc(O[C@H]2CCNC2)c(-c2ccc(-c3nn[nH]n3)cc2)c1)c1ccc(O[C@H]2CCNC2)c(-c2ccc(F)c(F)c2)c1` [Compound 91l, 3′,4′-Difluoro-6-((S)-pyrrolidin-3-yloxy)-N-(6-((S)-pyrrolidin-3-yloxy)-4′-(2h-tetrazol-5-yl)-[1,1′-biphenyl]-3-yl)-[1,1′-biphenyl]-3-carboxamide dihydrochloride]: the Ki is 19.9 ± 4.87 µM.

On to `COC(=O)c1ccc(OCCNC(=O)OC(C)(C)C)c(Br)c1` [Compound 30, Methyl-3-bromo-4-(2-((tert-butoxycarbonyl)amino)ethoxy) benzoate], for which the Ki is 156 ± 3.96 µM.

For the compound `NS(=O)(=O)c1ccc(-c2cc(NC(=O)c3ccc(O[C@H]4CCNC4)c(-c4ccc(F)c(F)c4)c3)ccc2O[C@H]2CCNC2)cc1` [Compound 91i, 3′,4′-Difluoro-6-((S)-pyrrolidin-3-yloxy)-N-(6-((S)-pyrrolidin-3-yloxy)-4′-sulfamoyl-[1,1′-biphenyl]-3-yl)-[1,1′-biphenyl]-3-carboxamide dihydrochloride], the Ki stood at 11.1 ± 1.16 µM.

With `COC(=O)c1ccc(OCCNC(=O)OC(C)(C)C)c(-c2ccc(F)cc2)c1` [Compound 31, Methyl-6-(2-((tert-butoxycarbonyl)amino)ethoxy)-4′-fluoro-[1,1′-biphenyl]-3-carboxylate], the Ki is 180 ± 4.84 µM.

With `O=C(Nc1ccc(O[C@H]2CCNC2)c(-c2cccc(-c3nn[nH]n3)c2)c1)c1ccc(O[C@H]2CCNC2)c(-c2ccc(F)c(F)c2)c1` [Compound 91k, 3′,4′-Difluoro-6-((S)-pyrrolidin-3-yloxy)-N-(6-((S)-pyrrolidin-3-yloxy)-3′-(2h-tetrazol-5-yl)-[1,1′-biphenyl]-3-yl)-[1,1′-biphenyl]-3-carboxamide dihydrochloride], the Ki was found to be 3.91 ± 0.734 µM.

With `O=C(Nc1ccc(OCCO)c(-c2ccc(F)cc2)c1)c1ccc(OCCO)c(-c2ccc(F)c(F)c2)c1` [Compound 18, 3′,4′-Difluoro-N-(4′-fluoro-6-(2-hydroxyethoxy)-[1,1′-biphenyl]-3-yl)-6-(2-hydroxyethoxy)-[1,1′-biphenyl]-3-carboxamide], the Ki is 36.8 ± 2.72 µM.

For the compound `Cl.NCCOc1ccc(C(=O)Nc2cccc(-c3ccc(F)cc3)c2)cc1-c1ccc(F)cc1` [Compound 9, 2-((4′-Fluoro-5-((4′-fluoro-[1,1′-biphenyl]-3-yl)carbamoyl)-[1,1′-biphenyl]-2-yl)oxy) ethanaminium chloride], the Ki is 33.6 ± 4.34 µM.

`NCCOc1ccc(C(=O)Nc2cccc(-c3ccc(F)cc3)c2)cc1-c1ccc(Cl)c(F)c1` [Compound 14, 2-((4′-Chloro-3′-fluoro-5-((4′-fluoro-[1,1′-biphenyl]-3-yl)carbamoyl)-[1,1′-biphenyl]-2-yl)oxy) ethanaminium chloride]: the Ki was 74 ± 3.48 µM.

Consider `CC(=O)Nc1cccc(-c2cc(NC(=O)c3ccc(O[C@H]4CCNC4)c(-c4ccc(F)c(F)c4)c3)ccc2O[C@H]2CCNC2)c1` [Compound 103], for which the Ki is 96.4 ± 9.78 µM.

Consider `CS(=O)(=O)Nc1cccc(C#Cc2cc(NC(=O)c3ccc(O[C@H]4CCNC4)c(-c4ccc(F)c(F)c4)c3)ccc2O[C@H]2CCNC2)c1` [Compound 101], for which the Ki is 56.2 ± 7.64 µM.

For `NCCOc1ccc(C(=O)Nc2cccc(-c3ccc(F)c(F)c3)c2)cc1-c1ccc(F)cc1` [Compound 10, 2-((5-((3′,4′-Difluoro-[1,1′-biphenyl]-3-yl)carbamoyl)-4′-fluoro-[1,1′-biphenyl]-2-yl)oxy) ethanaminium chloride], the Ki was found to be 27.7 ± 3.67 µM.

Regarding `Cc1cc(F)ccc1-c1cc(NC(=O)c2ccc(O[C@H]3CCNC3)c(-c3ccc(F)c(F)c3)c2)ccc1O[C@H]1CCNC1` [Compound 91j, 3′,4′-Difluoro-N-(4′-fluoro-2′-methyl-6-((S)-pyrrolidin-3-yloxy)-[1,1′-biphenyl]-3-yl)-6-((S)-pyrrolidin-3-yloxy)-[1,1′-biphenyl]-3-carboxamide dihydrochloride], the Ki was 27.3 ± 4.83 µM.

For the compound `Cc1cc(C(=O)Nc2ccc(O[C@H]3CCNC3)c(-c3ccc(F)cc3)c2)ccc1O[C@H]1CCNC1` [Compound 24, (S)-3-((4′-fluoro-5-(3-methyl-4-((S)-pyrrolidin-1-ium-3-yloxy)benzamido)-[1,1′-biphenyl]-2-yl)oxy) pyrrolidin-1-ium chloride], the Ki amounted to 201 ± 9.29 µM.

As for `NC(=O)c1ccc(-c2cc(NC(=O)c3ccc(O[C@H]4CCNC4)c(-c4ccc(F)c(F)c4)c3)ccc2O[C@H]2CCNC2)cc1` [Compound 91h, N-(4′-carbamoyl-6-((S)-pyrrolidin-3-yloxy)-[1,1′-biphenyl]-3-yl)-3′,4′-difluoro-6-((S)-pyrrolidin-3-yloxy)-[1,1′-biphenyl]-3-carboxamide dihydrochloride], the Ki was determined as 51.7 ± 6.15 µM.

In the case of `Cc1ccccc1-c1cc(NC(=O)c2ccc(O[C@H]3CCNC3)c(-c3ccc(F)c(F)c3)c2)ccc1O[C@H]1CCNC1` [Compound 91a, 3′,4′-Difluoro-N-(2′-methyl-6-((S)-pyrrolidin-3-yloxy)-[1,1′-biphenyl]-3-yl)-6-((S)-pyrrolidin-3-yloxy)-[1,1′-biphenyl]-3-carboxamide dihydrochloride], the Ki was 36 ± 7.21 µM.

With `O=C(O)c1cccc(-c2cc(NC(=O)c3ccc(O[C@H]4CCNC4)c(-c4ccc(F)c(F)c4)c3)ccc2O[C@H]2CCNC2)c1` [Compound 98], the Ki came out at 180 ± 4.84 µM.

Turning to `O=C(Nc1ccc(O[C@@H]2CCNC2)c(-c2ccc(F)cc2)c1)c1ccc(O[C@H]2CCNC2)c(-c2ccc(F)c(F)c2)c1` [Compound 28, (S)-3-((3′,4′-difluoro-5-((4′-fluoro-6-(((R)-pyrrolidin-1-ium-3-yl)oxy)-[1,1′-biphenyl]-3-yl)carbamoyl)-[1,1′-biphenyl]-2-yl)oxy) pyrrolidin-1-ium chloride], the Ki was determined as 3.41 ± 0.354 µM.

`O=C(Nc1ccc(O[C@@H]2CCNC2)c(-c2ccc(F)cc2)c1)c1ccc(O[C@@H]2CCNC2)c(-c2ccc(F)c(F)c2)c1` [Compound 26, (R)-3-((3′,4′-difluoro-5-((4′-fluoro-6-(((R)-pyrrolidin-1-ium-3-yl)oxy)-[1,1′-biphenyl]-3-yl)carbamoyl)-[1,1′-biphenyl]-2-yl)oxy) pyrrolidin-1-ium chloride]: the Ki was 4.08 ± 0.355 µM.

`O=C(Nc1ccc(O[C@H]2CCNC2)c(-c2ccc(F)cc2)c1)c1cnc(O[C@H]2CCNC2)c(-c2ccc(F)c(F)c2)c1` [Compound 84b, 5-(3,4-difluorophenyl)-N-(4′-fluoro-6-((S)-pyrrolidin-3-yloxy)-[1,1′-biphenyl]-3-yl)-6-((S)-pyrrolidin-3-yloxy)nicomide dihydrochloride]: the Ki was 84.2 ± 14.8 µM.

`O=C(Nc1ccc(OC2CNC2)c(-c2ccc(F)cc2)c1)c1ccc(OC2CNC2)c(-c2ccc(F)c(F)c2)c1` [Compound 22, 3-((5-(6-(azetidin-1-ium-3-yloxy)-3′,4′-difluoro-[1,1′-biphenyl]-3-ylcarboxamido)-4′-fluoro-[1,1′-biphenyl]-2-yl)oxy)azetidin-1-ium chloride]: the Ki turned out to be 17 ± 1.99 µM.
